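Test compounds were applied to cells in 96-well plates for 48 hours at 5 doses. The concentration for 50% growth inhibition is given as GI50.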 Activity calls are given as the source filed them. No stated cut-off is given here; in the data, active = GI50 up to about 1.1 µM and inactive = higher.
How the values were obtained:
Experiment in all cases: NCI-60 cell line screen, 48 h
TK-10 = test system: TK-10
SF-295 = test system: SF-295
PC-3 = test system: PC-3
SK-MEL-28 = test system: SK-MEL-28
MCF7 = test system: MCF7
SNB-19 = test system: SNB-19
RXF 393 = test system: RXF 393
MOLT-4 = test system: MOLT-4
HT-29 = test system: HT-29
MDA-MB-231 = test system: MDA-MB-231
LOX IMVI = test system: LOX IMVI
HCT-116 = test system: HCT-116
COLO 205 = test system: COLO 205
OVCAR-3 = test system: OVCAR-3
Malme-3M = test system: Malme-3M
OVCAR-8 = test system: OVCAR-8
MDA-MB-435 = test system: MDA-MB-435
SW-620 = test system: SW-620
HL-60 = test system: HL-60
SNB-75 = test system: SNB-75

| Compound | GI50 (TK-10) | GI50 (SF-295) | GI50 (PC-3) | GI50 (SK-MEL-28) | GI50 (MCF7) | GI50 (SNB-19) | GI50 (RXF 393) | GI50 (MOLT-4) | GI50 (HT-29) | GI50 (MDA-MB-231) | GI50 (LOX IMVI) | GI50 (HCT-116) | GI50 (COLO 205) | GI50 (OVCAR-3) | GI50 (Malme-3M) | GI50 (OVCAR-8) | GI50 (MDA-MB-435) | GI50 (SW-620) | GI50 (HL-60) | GI50 (SNB-75) |
| --- | --- | --- | --- | --- | --- | --- | --- | --- | --- | --- | --- | --- | --- | --- | --- | --- | --- | --- | --- | --- |
| COc1ccc(C2OC(c3ccncc3)=NN2C)cc1OC (centres undefined) | 79.4 µM (inactive) | > 100 µM (inactive) | 53.2 µM (inactive) | > 100 µM (inactive) | 71.3 µM (inactive) | > 100 µM (inactive) | 93.5 µM (inactive) | 75.7 µM (inactive) | > 100 µM (inactive) | 67.6 µM (inactive) | > 100 µM (inactive) | > 100 µM (inactive) | > 100 µM (inactive) | > 100 µM (inactive) | > 100 µM (inactive) | > 100 µM (inactive) | > 100 µM (inactive) | > 100 µM (inactive) | 96.8 µM (inactive) |  |
| Cc1cc2c(cc1Cl)Sc1nnc(Nc3ccccc3)n1S2(=O)=O | 17.8 µM (inactive) | 13.3 µM (inactive) | 5.7 µM (inactive) | 15.8 µM (inactive) | 8.02 µM (inactive) |  | 5.26 µM (inactive) | 3.07 µM (inactive) | 23.4 µM (inactive) | 11.7 µM (inactive) | 3.85 µM (inactive) | 9.64 µM (inactive) |  | 2.2 µM (inactive) |  | 5.97 µM (inactive) | 5.01 µM (inactive) | 7.87 µM (inactive) | 1.98 µM (inactive) | 5.47 µM (inactive) |
| CCOC(=O)c1nc2cc(F)c(N3CCOCC3)cc2[nH]c1=O | > 100 µM (inactive) | > 100 µM (inactive) | > 100 µM (inactive) | > 100 µM (inactive) | > 100 µM (inactive) | > 100 µM (inactive) | > 100 µM (inactive) | > 100 µM (inactive) | > 100 µM (inactive) | > 100 µM (inactive) |  | > 100 µM (inactive) | > 100 µM (inactive) | > 100 µM (inactive) | > 100 µM (inactive) | > 100 µM (inactive) | > 100 µM (inactive) | > 100 µM (inactive) | 47.5 µM (inactive) | > 100 µM (inactive) |
| N#Cc1nc(-c2ccccc2O)oc1N | 63.8 µM (inactive) |  | 91.2 µM (inactive) | > 100 µM (inactive) | 37.1 µM (inactive) | > 100 µM (inactive) | 55.7 µM (inactive) | 60.4 µM (inactive) | > 100 µM (inactive) | > 100 µM (inactive) | 53.7 µM (inactive) | 78.2 µM (inactive) |  |  |  | 89.1 µM (inactive) | 99.8 µM (inactive) | 65 µM (inactive) | > 100 µM (inactive) |  |
| CCOC(=O)/C(C#N)=N\Nc1ccc(-n2c(C)nc3ccc(Br)cc3c2=O)cc1 | > 100 µM (inactive) | 64.7 µM (inactive) | 63.8 µM (inactive) | 98.2 µM (inactive) | 72.1 µM (inactive) | 76.6 µM (inactive) |  | 27.4 µM (inactive) | 69.5 µM (inactive) | > 100 µM (inactive) | 36.1 µM (inactive) | 42.2 µM (inactive) | 58.3 µM (inactive) | 52.7 µM (inactive) |  | 68.1 µM (inactive) | 84.1 µM (inactive) | 90.6 µM (inactive) | 21.9 µM (inactive) | 55.1 µM (inactive) |
| COc1ccccc1/C=C1\S/C(=N/Nc2nc(C)c(C(C)=O)s2)NC1=O | 40.6 µM (inactive) | 51.5 µM (inactive) | 43.6 µM (inactive) | 40.6 µM (inactive) | 25.6 µM (inactive) | 51.2 µM (inactive) | 69 µM (inactive) | 35.6 µM (inactive) | 42.9 µM (inactive) | 22.8 µM (inactive) | 43.2 µM (inactive) | 43.3 µM (inactive) | 22.9 µM (inactive) | 26.9 µM (inactive) |  | 33.3 µM (inactive) | 32.6 µM (inactive) | 46.1 µM (inactive) | 26.1 µM (inactive) | 24.5 µM (inactive) |
| CC(C)OC1=C(CC2(C)OCCO2)C(=O)C12OCCO2 | > 100 µM (inactive) | > 100 µM (inactive) | > 100 µM (inactive) | > 100 µM (inactive) | > 100 µM (inactive) | > 100 µM (inactive) |  | > 100 µM (inactive) | > 100 µM (inactive) | > 100 µM (inactive) | > 100 µM (inactive) | > 100 µM (inactive) | > 100 µM (inactive) | > 100 µM (inactive) |  | > 100 µM (inactive) | > 100 µM (inactive) | > 100 µM (inactive) | > 100 µM (inactive) | > 100 µM (inactive) |
| COC(=O)C1=C(OC)[C@H]2C#C/C=C\C#C[C@@H]3Nc4c(cc(O)c5c4C(=O)c4ccccc4C5=O)[C@]24O[C@@]34[C@H]1C | 0.0327 µM (active) | < 0.01 µM (active) | < 0.01 µM (active) | < 0.0229 µM (active) | < 0.01 µM (active) | < 0.01 µM (active) |  | < 0.01 µM (active) | < 0.01 µM (active) | < 0.01 µM (active) | < 0.01 µM (active) | 0.0555 µM (active) | < 0.01 µM (active) | < 0.0153 µM (active) | < 0.01 µM (active) | < 0.01 µM (active) | < 0.01 µM (active) | < 0.01 µM (active) | < 0.01 µM (active) | < 0.01 µM (active) |
| O=C1OC(C2Cc3cc4c(cc3C2=O)CCC4)c2ccccc21 (centres undefined) | > 100 µM (inactive) | 74.5 µM (inactive) | 30.3 µM (inactive) | 38.5 µM (inactive) | 41.5 µM (inactive) | 32.1 µM (inactive) |  | 23.7 µM (inactive) | 30.6 µM (inactive) | 36.6 µM (inactive) | 37 µM (inactive) | 36.6 µM (inactive) | 33.9 µM (inactive) | 77.6 µM (inactive) | > 100 µM (inactive) | 67.1 µM (inactive) | 40.3 µM (inactive) | 37.3 µM (inactive) | 42.9 µM (inactive) | 51.4 µM (inactive) |
| CN(CC#N)C(=O)Cc1ccc([N+](=O)[O-])cc1 | > 10 µM (inactive) | > 10 µM (inactive) | > 10 µM (inactive) | > 10 µM (inactive) | > 10 µM (inactive) | > 10 µM (inactive) | > 10 µM (inactive) | > 10 µM (inactive) | > 10 µM (inactive) | > 10 µM (inactive) | > 10 µM (inactive) | > 10 µM (inactive) | > 10 µM (inactive) | > 10 µM (inactive) | > 10 µM (inactive) | > 10 µM (inactive) | > 10 µM (inactive) | > 10 µM (inactive) | > 10 µM (inactive) |  |
| Cc1ccc2c(=O)c(C(=O)N(CCO)CCO)c[nH]c2n1 | > 100 µM (inactive) | > 100 µM (inactive) | > 100 µM (inactive) | > 100 µM (inactive) | > 100 µM (inactive) | > 100 µM (inactive) | > 100 µM (inactive) | > 100 µM (inactive) | > 100 µM (inactive) | > 100 µM (inactive) | > 100 µM (inactive) | > 100 µM (inactive) | > 100 µM (inactive) | > 100 µM (inactive) | > 100 µM (inactive) | > 100 µM (inactive) | > 100 µM (inactive) | > 100 µM (inactive) | > 100 µM (inactive) |  |
| CC(=O)N(CCCCNC(=O)C(F)(F)F)CCCNC(=O)C(F)(F)F | > 100 µM (inactive) | > 100 µM (inactive) | > 100 µM (inactive) | > 100 µM (inactive) | > 100 µM (inactive) | > 100 µM (inactive) | > 100 µM (inactive) | > 100 µM (inactive) | > 100 µM (inactive) | > 100 µM (inactive) |  | > 100 µM (inactive) | > 100 µM (inactive) | > 100 µM (inactive) |  | > 100 µM (inactive) | > 100 µM (inactive) | > 100 µM (inactive) | > 100 µM (inactive) | > 100 µM (inactive) |
| CC(C)C[C@H](NC(=O)CCc1ccccc1)B(O)O | 8.97 µM (inactive) | 12 µM (inactive) | 37.2 µM (inactive) | 11 µM (inactive) | 6.03 µM (inactive) | 15.4 µM (inactive) | 5.66 µM (inactive) | 3.04 µM (inactive) | 2.85 µM (inactive) | 17.7 µM (inactive) | 4.63 µM (inactive) | 5.87 µM (inactive) | 12.7 µM (inactive) | 3.63 µM (inactive) | 11.7 µM (inactive) | 19.7 µM (inactive) | 2.67 µM (inactive) | 4.83 µM (inactive) | 2.15 µM (inactive) |  |
| COC(=O)c1ccc(OCCn2nnc(C(=O)NN)c2C(=O)NN)cc1 | > 100 µM (inactive) | > 100 µM (inactive) | > 100 µM (inactive) | > 100 µM (inactive) | > 100 µM (inactive) | > 100 µM (inactive) |  | > 100 µM (inactive) | > 100 µM (inactive) | > 100 µM (inactive) | > 100 µM (inactive) | > 100 µM (inactive) | > 100 µM (inactive) | > 100 µM (inactive) | > 100 µM (inactive) | > 100 µM (inactive) | > 100 µM (inactive) |  | > 100 µM (inactive) |  |
| Cc1ccc2c3c1O[C@H]1c4[nH]c5ccccc5c4C[C@@]4(O)[C@@H](C2)N(CC2CC2)CC[C@]314 | 17.3 µM (inactive) | 17.4 µM (inactive) | 12.1 µM (inactive) | 12.6 µM (inactive) | 16.4 µM (inactive) | 16.7 µM (inactive) | 7.38 µM (inactive) | 12.2 µM (inactive) | 4.42 µM (inactive) | 19.4 µM (inactive) | 15.9 µM (inactive) | 14.5 µM (inactive) | 14.3 µM (inactive) | 14.4 µM (inactive) | 14.5 µM (inactive) | 15.3 µM (inactive) | 13.7 µM (inactive) | 10.9 µM (inactive) | 5.3 µM (inactive) |  |
